One experiment can be described thus: Inhibition of Staphylococcus aureus DHFR.
Molecule `CCOc1cc(Cc2cnc(N)nc2N)cc(OC)c1OC` showed an inhibitory constant (Ki) of 2.5 nM.

In the case of `CCCOc1cc(Cc2cnc(N)nc2N)cc(OC)c1OC`, the affinity corresponds to a Ki of 1.4 nM.

The molecule `C=CCc1cc(Cc2cnc(N)nc2N)cc(OC)c1OC` had an inhibitory constant (Ki) of 2.8 nM.

For the molecule `C/C=C/c1cc(Cc2cnc(N)nc2N)cc(OC)c1OC`, the inhibition constant Ki came to 1.4 nM.

A short description of the next experiment: Antibacterial activity against Staphylococcus aureus.
With `C=CCOc1cc(Cc2cnc(N)nc2N)cc(OC)c1OC`, the inhibitory constant (Ki) was 3 nM.

In turn, `CCCc1cc(Cc2cnc(N)nc2N)cc(CCC)c1OC` came in with an inhibitory constant (Ki) of 3.2 nM.

The values above are taken from BindingDB's records for doi:10.1021/jm00128a043 (Wellcome Research Laboratories, 1989).
